Experimental data taken from PubChem BioAssay AID248 (DTP/NCI, 2004).
Several values for one entry are separate records, joined by “and”; a condition that tells them apart may be missing. Equal values may be shown once. Toxic doses and inconclusive results are not listed.

System: L1210 leukemia ip in BDF1 mice, survival T/C
Test: NCI In Vivo Anticancer Drug Screen. Data for tumor model L1210 Leukemia (intraperitoneal) in B6D2F1 (BDF1) mice
Conditions: endpoint: mean survival time, higher = longer survival
How it was run: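 Survival endpoint. Drug-treated group vs vehicle group, expressed as T divided by C. Tumor passaged by transplantation.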

[1] = dose: 100.0 mg/kg/injection, schedule: Q04DX003 (ip), vehicle: Klucel (hydroxypropylcellulose) (HPC)
[2] = dose: 200.0 mg/kg/injection, schedule: Q04DX003 (ip), vehicle: Klucel (hydroxypropylcellulose) (HPC)
[3] = dose: 400.0 mg/kg/injection, schedule: Q04DX003 (ip), vehicle: Klucel (hydroxypropylcellulose) (HPC)
[4] = dose: 100.0 mg/kg/injection, schedule: Q04DX002 (ip), vehicle: Klucel (hydroxypropylcellulose) (HPC)
[5] = dose: 200.0 mg/kg/injection, schedule: Q04DX002 (ip), vehicle: Klucel (hydroxypropylcellulose) (HPC)
[6] = dose: 400.0 mg/kg/injection, schedule: Q04DX002 (ip), vehicle: Klucel (hydroxypropylcellulose) (HPC)

CCc1nc(N)nc(-c2ccccc2)c1-c1ccc([N+](=O)[O-])cc1O
T/C [1]: 98 % of control | T/C [2]: 95 % of control | T/C [3]: 97 % of control

Cc1cc2nc(CO)[nH]c2cc1C
T/C (dose: 100.0 mg/kg/injection, schedule: Q01DX009 (ip), vehicle: Klucel (hydroxypropylcellulose) (HPC)): 94 % of control | T/C [1]: 95 % of control | T/C (dose: 200.0 mg/kg/injection, schedule: Q01DX009 (ip), vehicle: Klucel (hydroxypropylcellulose) (HPC)): 96 % of control | T/C [2]: 93 % of control | T/C (dose: 400.0 mg/kg/injection, schedule: Q01DX009 (ip), vehicle: Klucel (hydroxypropylcellulose) (HPC)): 98 % of control | T/C [3]: 92 % of control

C(=C\c1ccccc1)/C[n+]1cccc2ccccc21
T/C (dose: 75.0 mg/kg/injection, schedule: Q01DX001 (ip), vehicle: saline): 89 % of control

NC(CSS(=O)(=O)O)=NCc1ccncc1
T/C (dose: 25.0 mg/kg/injection, schedule: Q04DX002 (ip), vehicle: saline): 95 % of control | T/C (dose: 50.0 mg/kg/injection, schedule: Q04DX002 (ip), vehicle: saline): 103 % of control | T/C (dose: 100.0 mg/kg/injection, schedule: Q04DX002 (ip), vehicle: saline): 123 % of control

O=C(c1ccccc1Br)C1C(c2ccccc2)N1C1CCCCC1 (stereo not drawn)
T/C (dose: 50.0 mg/kg/injection, schedule: Q04DX003 (ip), vehicle: Klucel (hydroxypropylcellulose) (HPC)): 102 % of control | T/C [1]: 102 % of control | T/C [2]: 98 % of control | T/C [3]: 93 % of control

Cc1cc(C(=O)NC(CCC(=O)O)C(=O)O)cc(C)c1N(C)Cc1cnc2nc(N)nc(N)c2n1 (stereo not drawn)
T/C (dose: 3.13 mg/kg/injection, schedule: Q01DX009 (ip), vehicle: saline): 158 % of control | T/C (dose: 6.25 mg/kg/injection, schedule: Q01DX009 (ip), vehicle: saline): 161 % of control | T/C (dose: 12.5 mg/kg/injection, schedule: Q01DX009 (ip), vehicle: saline): 153 % of control and 165 % of control | T/C (dose: 50.0 mg/kg/injection, schedule: Q01DX009 (ip), vehicle: sodium bicarbonate): 101 % of control

Cc1ccc(-n2cccc2)cc1
T/C (dose: 50.0 mg/kg/injection, schedule: Q04DX002 (ip), vehicle: Klucel (hydroxypropylcellulose) (HPC)): 90 % of control | T/C [4]: 93 % of control and 90 % of control | T/C [5]: 90 % of control | T/C [6]: 106 % of control

Cc1cc(C)c(S(=O)(=O)NN)c(C)c1
T/C (dose: 100.0 mg/kg/injection, schedule: Q04DX003 (ip), vehicle: saline with Tween-80): 94 % of control | T/C (dose: 200.0 mg/kg/injection, schedule: Q04DX003 (ip), vehicle: saline with Tween-80): 90 % of control

O=C(Nc1ccccc1)N(O)c1ccccc1
T/C (dose: 9.0 mg/kg/injection, schedule: Q01DX015 (ip), vehicle: methylcellulose (MC)): 97 % of control | T/C (dose: 18.0 mg/kg/injection, schedule: Q01DX015 (ip), vehicle: methylcellulose (MC)): 97 % of control | T/C (dose: 25.0 mg/kg/injection, schedule: Q01DX015 (ip), vehicle: methylcellulose (MC)): 112 % of control | T/C (dose: 37.5 mg/kg/injection, schedule: Q01DX015 (ip), vehicle: methylcellulose (MC)): 95 % of control | T/C (dose: 50.0 mg/kg/injection, schedule: Q01DX015 (ip), vehicle: methylcellulose (MC)): 103 % of control | T/C (dose: 100.0 mg/kg/injection, schedule: Q01DX015 (ip), vehicle: methylcellulose (MC)): 103 % of control | T/C (dose: 200.0 mg/kg/injection, schedule: Q01DX015 (ip), vehicle: methylcellulose (MC)): 101 % of control

S=c1nc[nH]c2c1ncn2/N=C/c1ccccc1
T/C (dose: 100.0 mg/kg/injection, schedule: Q01DX001 (ip), vehicle: other): 96 % of control | T/C (dose: 200.0 mg/kg/injection, schedule: Q01DX001 (ip), vehicle: other): 90 % of control | T/C (dose: 400.0 mg/kg/injection, schedule: Q01DX001 (ip), vehicle: other): 96 % of control

Cc1c([N+](=O)[O-])cc(C(C)(C)C)c(OC(=O)Nc2cccc(Cl)c2)c1[N+](=O)[O-]
T/C (dose: 12.5 mg/kg/injection, schedule: Q01DX009 (ip), vehicle: Klucel (hydroxypropylcellulose) (HPC)): 100 % of control | T/C (dose: 25.0 mg/kg/injection, schedule: Q01DX009 (ip), vehicle: Klucel (hydroxypropylcellulose) (HPC)): 94 % of control | T/C (dose: 50.0 mg/kg/injection, schedule: Q01DX009 (ip), vehicle: Klucel (hydroxypropylcellulose) (HPC)): 101 % of control

Nc1cc2c3c(cccc3c1Br)C(=O)NC2=O
T/C [4]: 121 % of control | T/C [5]: 96 % of control | T/C [6]: 107 % of control
